{"source": "patent US12551537B2", "about": "“Methods and compositions for the treatment and prevention of type 1 diabetes” (Dr. Mary Morris & Associates, LLC, priority 2019, dated 2026)", "key": {"serum C-peptide": {"test_system": "serum C-peptide", "test": "Serum C-peptide levels in NOD mice (mouse C-peptide ELISA)", "type": "in vivo", "conditions": "sublingual 87 μg once per day up to 30 weeks of age, compared to untreated control NOD mice", "protocol": "Serum C-peptide assay. The mouse C-peptide ELISA (ALPCO), which quantifies C-peptide protein products of mouse I and mouse II proinsulin genes, is used. Briefly, serum is collected by inserting a needle into the submandibular vein and collecting ˜0.2 mL of blood. The blood is centrifuged for 30 minutes at 17,000 rpm in a refrigerated centrifuge, and serum is collected and stored −80° C.\nFive-week old female NOD mice are randomly assigned to three groups as described in Example 1: (1) control group (oil only); (2) insulin-related peptide treatment (Humulin®) started at six weeks of age; or (3) insulin-related peptide treatment (Humulin®) started at ten weeks of age. Mice in the treatment groups (2) and (3) are sublingually administered 87 μg of Humulin® once per day up to 30 weeks of age. Baseline C-peptide measurements are taken from serum drawn at week 6. Thereafter, C-peptide measurements are taken from serum drawn 1 time per 2 weeks beginning at week 20 up to 30 weeks of age."}, "[1]": {"test_system": "islet cell autoantibody levels", "test": "Autoantibody titer in NOD mice (ELISA)", "type": "in vivo, mouse", "conditions": "sublingual 87 μg once per day up to 30 weeks of age, compared to untreated controls", "from_the_text": "Autoantibody titer assay. Commercially available ELISA assays are employed for detecting the presence of anti-insulin antibodies in serum samples collected from subjects.\nFive-week old female NOD mice are randomly assigned to three groups as described in Example 1: (1) control group (oil only); (2) insulin-related peptide treatment (Humulin®) started at six weeks of age; or (3) insulin-related peptide treatment (Humulin®) started at ten weeks of age. Mice in the treatment groups (2) and (3) are sublingually administered 87 μg of humulin once per day up to 30 weeks of age. The subjects are assessed for baseline levels of autoantibodies at week 6. Thereafter, autoantibody titer measurements are taken once every other week beginning at week 15 up to 30 weeks of age."}, "[2]": {"test_system": "non-obese diabetic (NOD) mice", "test": "Onset of hyperglycemia / Type 1 diabetes in NOD mice with sublingual treatment", "type": "in vivo, mouse", "conditions": "for Median Survival (time to Type 1 diabetes onset): female NOD mice, sublingual 87 μg once per day, diabetic = three consecutive blood glucose readings above 300 mg/dL, control 21 weeks; for Gehan-Breslow-Wilcoxon test: Are the survival curves significantly different? / Log-rank (Mantel-Cox) test: Are the survival curves significantly different?: vs control", "protocol": "Sublingual formulation. A commercial high dose Humulin® solution (Humulin® R U-500) containing 500 units of insulin per mL is mixed with an additional equal volume (1:1 (vol:vol)) 100% glycerin. Each dose contains 10 μL of the Humulin®-glycerin solution, which contains 2.5 units (approximately 87 micrograms) of insulin in a solution having a final concentration of 52 vol. % glycerin.\nNOD mice. Non-obese diabetic (NOD) mice, as described by Makino (Adv. Immunol. 51:285-322 (1992)), are used in the studies described herein. NOD mice provide an animal model for the spontaneous development of Type 1 diabetes. NOD mice develop insulitis as a result of leukocyte infiltration into the pancreatic islet, which in turn leads to the destruction of pancreatic islets and a Type 1 diabetic phenotype.\nFive-week old female NOD mice were randomly assigned to three groups: (1) control group (1:1 glycerin/phosphate buffered saline (PBS)); (2) insulin-related peptide treatment (Humulin®) started at six weeks of age; or (3) insulin-related peptide treatment (Humulin®) started at ten weeks of age. Mice in the treatment groups (2) and (3) were sublingually administered 87 μg of Humulin® (10 μL of solution) once per day up to 30 weeks of age. Blood glucose measurements were taken once per week up to 20 weeks of age, and then twice per week thereafter. Mice were classified as diabetic after three consecutive blood glucose readings above 300 mg/dL (hyperglycemic)."}, "[3]": {"conditions": "FIG. 1A, treatment group 2, sublingual, started at six weeks of age, compared to control group"}, "[4]": {"conditions": "FIG. 1A, treatment started at 6 weeks of age"}, "[5]": {"conditions": "FIG. 1B, treatment started at 10 weeks of age"}}, "data": [{"substance": "Humulin: commercial recombinant human insulin solution (Humulin R U-500, 500 units/mL) mixed 1:1 with 100% glycerin for sublingual dosing", "values": [{"measurement": "serum C-peptide levels", "setting": "serum C-peptide", "result": "maintenance or enhanced serum C-peptide levels"}, {"measurement": "antigenic response (e.g., islet cell autoantibody levels)", "setting": "[1]", "result": "attenuated antigenic response"}, {"measurement": "Median Survival (time to Type 1 diabetes onset)", "setting": "[2]; FIG. 1A, started at 6 weeks of age up to 30 weeks", "result": 27, "unit": "weeks"}, {"measurement": "incidence (% T1D Onset) of Type 1 diabetes", "setting": "[2]; [3]", "result": "significantly reduced"}, {"measurement": "onset time (weeks) of Type 1 diabetes", "setting": "[2]; [3]", "result": "significantly reduced"}, {"measurement": "Ratio of median survival (control vs Humulin)", "setting": "[2]; [4]", "result": 0.778}, {"measurement": "Reciprocal of ratio of median survival", "setting": "[2]; [4]", "result": 1.29}, {"measurement": "Gehan-Breslow-Wilcoxon test: Are the survival curves significantly different?", "setting": "[2]; [4]", "result": "Yes"}, {"measurement": "Log-rank (Mantel-Cox) test: Are the survival curves significantly different?", "setting": "[2]; [4]", "result": "Yes"}, {"measurement": "Median Survival (time to Type 1 diabetes onset)", "setting": "[2]; FIG. 1B, started at 10 weeks of age up to 30 weeks", "result": 24, "unit": "weeks"}, {"measurement": "Ratio of median survival (control vs Humulin)", "setting": "[2]; [5]", "result": 0.8750}, {"measurement": "Reciprocal of ratio of median survival", "setting": "[2]; [5]", "result": 1.14}, {"measurement": "Gehan-Breslow-Wilcoxon test: Are the survival curves significantly different?", "setting": "[2]; [5]", "result": "No"}, {"measurement": "Log-rank (Mantel-Cox) test: Are the survival curves significantly different?", "setting": "[2]; [5]", "result": "No"}]}]}
